Measurements: patent US20180162862A1 (President and Fellows of Harvard College, priority 2015, published 2018)
Values after ≈ are worked out from the molar mass of the structure shown. Read-outs that look alike come from different tables or passages of the source.

Experiments:
[1] = tested on: S. aureus ATCC 43300; assay: MIC test according to CLSI M7-A9, S. aureus ATCC 43300; format: cell-based; conditions: Staphylococcus aureus, ATCC43300; CLSI M7-A9, CAMHB, 24 h (Table 3); read-out: S. aureus ATCC 43300 MIC
Description: (§1) MIC Test (S. aureus ATCC 29213, S. aureus ATCC 43300 and S. aureus Newman)
(§2) Susceptibility testing of S. aureus ATCC 29213, ATCC 43300 and Newman was performed according to Clinical Laboratory Standard Institute (CLSI) guidelines M7-A9. Test articles were stored at room temperature prior to use, then dissolved in filtered sterile DMSO. Stock DMSO solutions were diluted further in cation-adjusted Mueller Hinton broth (CAMHB) to provide appropriate test concentrations. Cultures of S. aureus (ATCC 29213, ATCC 43300 or Newman) were added in accordance with CLSI guidelines and plates incubated at 37° C. in air for 24 h. Endpoints were determined visually (and by spectrophotometer at 600 nm) and the minimum inhibitory concentration (MIC) defined as the lowest concentration of test articles resulting in complete inhibition of visible bacterial growth. Results are detailed in Table 2 (S. aureus ATCC 29213 and ATCC 43300) and Table 3 (S. aureus ATCC 29213, ATCC 43300 and Newman).

[2] = tested on: S. aureus Newman; assay: MIC test according to CLSI M7-A9, S. aureus Newman; format: cell-based; conditions: Staphylococcus aureus, CLSI M7-A9, CAMHB, 24 h (Table 3), read-out: S. aureus ATCC Newman MIC
Description: as §1, §2

[3] = tested on: S. aureus ATCC 29213; assay: MIC test according to CLSI M7-A9, S. aureus ATCC 29213; format: cell-based; conditions: Staphylococcus aureus, ATCC29213; CLSI M7-A9, CAMHB, 24 h (Table 3); read-out: S. aureus ATCC 29213 MIC
In short: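 Per CLSI M7-A9, DMSO stocks diluted in cation-adjusted Mueller Hinton broth, plates incubated 24 h at 37 °C in air. MIC is the lowest concentration giving complete inhibition of visible growth, read visually and at 600 nm.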

[4] = tested on: MSSA Newman; assay: MIC test in TSB medium with MTT staining, MSSA Newman; format: cell-based, Staphylococcus aureus; conditions: Staphylococcus aureus, TSB, 37° C.
Description: MIC Test (Methicillin Susceptible Staphylococcus aureus (MSSA Newman))
Overnight cultures of MSSA Newman were grown up in TSB medium at 37° C. The cultures obtained were normalized with TSB to OD600=0.6 and diluted 100-fold. 1.5 μL of a dilution series of Example Compounds in DMSO (100×, in duplicate), and the diluted bacterial culture (150 μL) was added to wells of a sterile, clear 96 well plate and incubated at 37° C.

[5] = MTT staining after 7 h, read-out: MSSA Newman MIC at 7 h
[6] = MTT staining after 24 h, read-out: MSSA Newman MIC at 24 h

| Compound | MIC [1] [µg/mL] | MIC [2] [µg/mL] | MIC [3] [µg/mL] | MIC [4, 6] [µg/mL] | MIC [4, 5] [µg/mL] |
| --- | --- | --- | --- | --- | --- |
| CC(C)(C)c1ccc(-c2nc(NCCN3CCCCC3)n3[nH]c(=O)cc3n2)cc1 [Example 82, 2-(4-tert-butylphenyl)-4-{[2-(piperidin-1-yl)ethyl]amino}-6H,7H-pyrazolo[1,5-a][1,3,5]triazin-7-one] | 64 (≈ 162 µM) | 32 (≈ 81.1 µM) | 64 (≈ 162 µM) |  |  |
| O=c1cc2nc(C34CC5CC(CC(C5)C3)C4)[nH]c(=S)n2[nH]1 [Example 99, 2-(adamantan-1-yl)-4-sulfanylidene-3H,4H,6H,7H-pyrazolo[1,5-a][1,3,5]triazin-7-one] | 64 (≈ 212 µM) | 32 (≈ 106 µM) | 64 (≈ 212 µM) |  |  |
| CN(CCNc1nc(-c2ccc(C(C)(C)C)cc2)nc2cc(=O)[nH]n12)C1CCCCC1 [Example 83, 2-(4-tert-butylphenyl)-4-({2-[cyclohexyl(methyl)amino]ethyl}amino)-6H,7H-pyrazolo[1,5-a][1,3,5]triazin-7-one] | 32 (≈ 75.7 µM) | 32 (≈ 75.7 µM) | 32 (≈ 75.7 µM) |  |  |
| CCCCNc1nc(-c2ccc(C)cc2)nc2cc(=O)[nH]n12 [Example 70, 4-(butylamino)-2-(4-methylphenyl)-6H,7H-pyrazolo[1,5-a][1,3,5]triazin-7-one] |  |  |  | > 100 | > 100 |
| CNc1nc(-c2ccc(C(C)(C)C)cc2)nc2cc(=O)[nH]n12 [Example 17, 2-(4-tert-butylphenyl)-4-(methylamino)-6H,7H-pyrazolo[1,5-a][1,3,5]triazin-7-one] |  |  |  |  | 50 (≈ 168 µM) |
| CC(C)(C)c1ccc(-c2nc(NCCCO)n3[nH]c(=O)c(Cc4ccccc4)c3n2)cc1 [Example 107, 8-benzyl-2-(4-tert-butylphenyl)-4-[(3-hydroxypropyl)amino]-6H,7H-pyrazolo[1,5-a][1,3,5]triazin-7-one] | > 128 | 64 (≈ 148 µM) | > 128 |  |  |
| CC(=O)c1ccc(-c2nc(NCCCOc3ccc(Cl)c(C)c3)n3[nH]c(=O)cc3n2)cc1 [Example 104, 2-(4-acetylphenyl)-4-{[3-(4-chloro-3-methylphenoxy)propyl]amino}-6H,7H-pyrazolo[1,5-a][1,3,5]triazin-7-one] | 32 (≈ 70.8 µM) | 32 (≈ 70.8 µM) | 32 (≈ 70.8 µM) |  |  |
| Cc1oc(C(C)(C)C)cc1-c1nc(NCCCO)n2[nH]c(=O)cc2n1 [Example 93, 2-(5-tert-butyl-2-methylfuran-3-yl)-4-[(3-hydroxypropyl)amino]-6H,7H-pyrazolo[1,5-a][1,3,5]triazin-7-one] | 32 (≈ 92.6 µM) | 16 (≈ 46.3 µM) | 32 (≈ 92.6 µM) |  |  |
| CC(C)(C)c1ccc(-c2nc(N)n3[nH]c(=O)cc3n2)cc1 [Example 37, 4-amino-2-(4-tert-butylphenyl)-6H,7H-pyrazolo[1,5-a][1,3,5]triazin-7-one] |  |  |  |  | 25 (≈ 88.2 µM) |
| CC(C)(C)c1ccc(-c2nc(NCC(F)CNC3CCCCC3)n3[nH]c(=O)cc3n2)cc1 (stereo not drawn) [Example 87, 2-(4-tert-butylphenyl)-4-{[3-(cyclohexylamino)-2-fluoropropyl]amino}-6H,7H-pyrazolo[1,5-a][1,3,5]triazin-7-one] | 32 (≈ 72.6 µM) | 32 (≈ 72.6 µM) | 32 (≈ 72.6 µM) |  |  |
| CC(C)(C)c1ccc(-c2nc(NCCN3CCOCC3)n3[nH]c(=O)cc3n2)cc1 [Example 81, 2-(4-tert-butylphenyl)-4-{[2-(morpholin-4-yl)ethyl]amino}-6H,7H-pyrazolo[1,5-a][1,3,5]triazin-7-one] | 128 (≈ 323 µM) | 128 (≈ 323 µM) | 128 (≈ 323 µM) |  |  |
| CC(C)(O)CCNc1nc(-c2ccc(C(C)(C)C)cc2)nc2cc(=O)[nH]n12 [Example 80, 2-(4-tert-butylphenyl)-4-[(3-hydroxy-3-methylbutyl)amino]-6H,7H-pyrazolo[1,5-a][1,3,5]triazin-7-one] | 64 (≈ 173 µM) | 32 (≈ 86.6 µM) | 32 (≈ 86.6 µM) |  |  |
| CCCCNc1nc(-c2ccc(C(C)(C)C)cc2)nc2cc(=O)[nH]n12 [Example 16, 4-(butylamino)-2-(4-tert-butylphenyl)-6H,7H-pyrazolo[1,5-a][1,3,5]triazin-7-one] |  |  |  | 12.5 (≈ 36.8 µM) | 6.2 (≈ 18.3 µM) |
| O=c1cc2nc(C34CC5CC(CC(C5)C3)C4)nc(NCCCO)n2[nH]1 [Example 100, 2-(adamantan-1-yl)-4-[(3-hydroxypropyl)amino]-6H,7H-pyrazolo[1,5-a][1,3,5]triazin-7-one] | 32 (≈ 93.2 µM) | 16 (≈ 46.6 µM) | 32 (≈ 93.2 µM) |  |  |
| Cc1cc(OCCCN(CCO)c2nc(-c3ccc(C(C)(C)C)cc3)nc3cc(=O)[nH]n23)ccc1Cl [Example 85] | 32 (≈ 62.7 µM) | 4 (≈ 7.84 µM) | 32 (≈ 62.7 µM) |  |  |
| CCCCCCCCCCCCCCCCNc1nc(-c2ccc(C(C)(C)C)cc2)nc2cc(=O)[nH]n12 [Example 73, 2-(4-tert-butylphenyl)-4-(hexadecylamino)-6H,7H-pyrazolo[1,5-a][1,3,5]triazin-7-one] | > 32 | > 32 | > 32 |  |  |

The next lines start with results.

| MIC [1] [µg/mL] | MIC [2] [µg/mL] | MIC [3] [µg/mL] | MIC [4, 6] [µg/mL] | Compound | MIC [4, 5] [µg/mL] |
| --- | --- | --- | --- | --- | --- |
| 16 (≈ 34.7 µM) | 16 (≈ 34.7 µM) | 16 (≈ 34.7 µM) |  | Cc1oc(C(C)(C)C)cc1-c1nc(NCCCNC2Cc3ccccc3C2)n2[nH]c(=O)cc2n1 [Example 94] |  |
| 32 (≈ 86.8 µM) | 32 (≈ 86.8 µM) | 32 (≈ 86.8 µM) |  | CN(C)CCCNc1nc(-c2ccc(C(C)(C)C)cc2)nc2cc(=O)[nH]n12 [Example 75, 2-(4-tert-butylphenyl)-4-{[3-(dimethylamino)propyl]amino}-6H,7H-pyrazolo[1,5-a][1,3,5]triazin-7-one] |  |
| 16 (≈ 52.6 µM) | 8 (≈ 26.3 µM) | 32 (≈ 105 µM) |  | Cc1oc(C(C)(C)C)cc1-c1nc2cc(=O)[nH]n2c(=S)[nH]1 [Example 92, 2-(5-tert-butyl-2-methylfuran-3-yl)-4-sulfanylidene-3H,4H,6H,7H-pyrazolo[1,5-a][1,3,5]triazin-7-one] |  |
| 8 (≈ 17.4 µM) | 8 (≈ 17.4 µM) | 8 (≈ 17.4 µM) |  | O=c1cc2nc(C34CC5CC(CC(C5)C3)C4)nc(NCCCNC3Cc4ccccc4C3)n2[nH]1 [Example 101, 2-(adamantan-1-yl)-4-({3-[(2,3-dihydro-1H-inden-2-yl)amino]propyl}amino)-6H,7H-pyrazolo[1,5-a][1,3,5]triazin-7-one] |  |
| 16 (≈ 34.9 µM) | 32 (≈ 69.8 µM) | 32 (≈ 69.8 µM) |  | CC(C)(O)c1ccc(-c2nc(NCCCNC3Cc4ccccc4C3)n3[nH]c(=O)cc3n2)cc1 [Example 105, 4-({3-[(2,3-dihydro-1H-inden-2-yl)amino]propyl}amino)-2-[4-(2-hydroxypropan-2-yl)phenyl]-6H,7H-pyrazolo[1,5-a][1,3,5]triazin-7-one] |  |
| 8 (≈ 18.1 µM) | 32 (≈ 72.3 µM) | 16 (≈ 36.2 µM) |  | CC(=O)c1ccc(-c2nc(NCCCNC3Cc4ccccc4C3)n3[nH]c(=O)cc3n2)cc1 [Example 103, 2-(4-acetylphenyl)-4-({3-[(2,3-dihydro-1H-inden-2-yl)amino]propyl}amino)-6H,7H-pyrazolo[1,5-a][1,3,5]triazin-7-one] |  |
| 2 (≈ 5.12 µM) | 1 (≈ 2.56 µM) | 2 (≈ 5.12 µM) |  | CC(C)(C)c1ccc(-c2nc3c(Cc4ccccc4)c(=O)[nH]n3c(=S)[nH]2)cc1 [Example 106, 8-benzyl-2-(4-tert-butylphenyl)-4-sulfanylidene-3H,4H,6H,7H-pyrazolo[1,5-a][1,3,5]triazin-7-one] |  |
| 16 (≈ 37.2 µM) | 16 (≈ 37.2 µM) | 16 (≈ 37.2 µM) |  | CC(C)(C)c1ccc(-c2nc(NCCCNCc3ccccc3)n3[nH]c(=O)cc3n2)cc1 [Example 74, 4-{[3-(benzylamino)propyl]amino}-2-(4-tert-butylphenyl)-6H,7H-pyrazolo[1,5-a][1,3,5]triazin-7-one] |  |
